Holding throughout (conditions): Compound concentration 10 µM
The target in test [1] is Translocator protein (Homo sapiens) (UniProt P30536).
Test [2] concerns the target D(3) dopamine receptor (Homo sapiens) (UniProt P35462).
The target of test [3] is T1, 5-hydroxytryptamine receptor 1A (Homo sapiens) (UniProt P08908).
T1 sequence (whole entry): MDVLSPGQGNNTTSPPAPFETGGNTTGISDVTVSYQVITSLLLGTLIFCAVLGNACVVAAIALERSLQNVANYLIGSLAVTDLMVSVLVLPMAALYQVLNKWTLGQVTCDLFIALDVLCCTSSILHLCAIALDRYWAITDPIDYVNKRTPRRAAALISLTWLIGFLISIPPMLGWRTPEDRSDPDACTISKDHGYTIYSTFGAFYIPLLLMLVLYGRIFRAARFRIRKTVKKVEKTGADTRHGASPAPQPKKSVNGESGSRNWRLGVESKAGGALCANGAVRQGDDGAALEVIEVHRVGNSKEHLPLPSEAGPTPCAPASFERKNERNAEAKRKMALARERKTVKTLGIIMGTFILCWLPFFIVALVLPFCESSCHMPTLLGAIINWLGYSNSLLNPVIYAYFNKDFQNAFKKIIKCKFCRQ

In test [4] the target is 5-hydroxytryptamine receptor 1E (Homo sapiens) (UniProt P28566).
For test [5], the target named is Kappa-type opioid receptor (Homo sapiens) (UniProt P41145).
For test [6], the target named is Beta-2 adrenergic receptor (Homo sapiens) (UniProt P07550).
Test [7] addresses T2, 5-hydroxytryptamine receptor 3A (Homo sapiens) (UniProt P46098).
T2 sequence (whole entry): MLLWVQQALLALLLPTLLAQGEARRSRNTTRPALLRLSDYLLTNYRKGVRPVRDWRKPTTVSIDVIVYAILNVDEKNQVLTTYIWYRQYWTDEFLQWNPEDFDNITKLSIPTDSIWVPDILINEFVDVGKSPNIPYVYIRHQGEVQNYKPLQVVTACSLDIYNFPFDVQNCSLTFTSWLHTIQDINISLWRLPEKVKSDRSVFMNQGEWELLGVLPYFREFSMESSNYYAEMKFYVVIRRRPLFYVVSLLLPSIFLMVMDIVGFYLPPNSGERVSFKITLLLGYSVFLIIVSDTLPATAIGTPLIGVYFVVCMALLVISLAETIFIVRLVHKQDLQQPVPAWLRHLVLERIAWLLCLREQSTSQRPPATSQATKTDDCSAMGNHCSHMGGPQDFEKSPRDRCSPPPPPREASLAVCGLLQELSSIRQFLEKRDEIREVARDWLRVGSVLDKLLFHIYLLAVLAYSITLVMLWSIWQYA

The target in test [8] is T3, D(4) dopamine receptor (Homo sapiens) (UniProt P21917).
T3 sequence (whole entry): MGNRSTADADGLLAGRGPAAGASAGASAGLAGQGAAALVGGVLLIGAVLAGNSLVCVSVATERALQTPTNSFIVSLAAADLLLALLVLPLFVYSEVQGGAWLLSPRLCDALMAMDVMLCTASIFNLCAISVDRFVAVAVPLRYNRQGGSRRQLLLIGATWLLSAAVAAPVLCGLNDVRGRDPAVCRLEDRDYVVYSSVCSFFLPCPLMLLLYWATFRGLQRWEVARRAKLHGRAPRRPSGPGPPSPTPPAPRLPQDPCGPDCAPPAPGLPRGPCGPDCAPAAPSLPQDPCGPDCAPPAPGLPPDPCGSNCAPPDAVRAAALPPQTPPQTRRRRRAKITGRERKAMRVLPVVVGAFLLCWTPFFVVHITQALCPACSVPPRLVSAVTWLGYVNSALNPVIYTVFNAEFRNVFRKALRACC

The target of test [9] is Histamine H4 receptor (Homo sapiens) (UniProt Q9H3N8).
The target of test [10] is Sigma intracellular receptor 2 (Homo sapiens) (UniProt Q5BJF2).
For test [11], the target named is T4, Alpha-2C adrenergic receptor (Homo sapiens) (UniProt P18825).
T4 sequence (whole entry): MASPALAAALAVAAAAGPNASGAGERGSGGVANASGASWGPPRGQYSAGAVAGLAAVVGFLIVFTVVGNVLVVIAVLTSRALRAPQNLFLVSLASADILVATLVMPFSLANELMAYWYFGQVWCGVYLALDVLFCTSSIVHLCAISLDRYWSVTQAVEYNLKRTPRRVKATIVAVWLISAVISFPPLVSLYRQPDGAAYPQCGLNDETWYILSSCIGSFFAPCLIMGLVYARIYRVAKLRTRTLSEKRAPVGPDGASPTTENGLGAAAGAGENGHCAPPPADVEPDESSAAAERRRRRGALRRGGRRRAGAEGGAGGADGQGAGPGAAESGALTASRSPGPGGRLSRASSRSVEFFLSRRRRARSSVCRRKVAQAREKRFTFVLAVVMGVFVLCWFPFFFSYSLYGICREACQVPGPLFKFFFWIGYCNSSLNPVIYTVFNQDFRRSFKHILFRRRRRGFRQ

The target of test [12] is T5, 5-hydroxytryptamine receptor 2C (Homo sapiens) (UniProt P28335).
T5 sequence (whole entry): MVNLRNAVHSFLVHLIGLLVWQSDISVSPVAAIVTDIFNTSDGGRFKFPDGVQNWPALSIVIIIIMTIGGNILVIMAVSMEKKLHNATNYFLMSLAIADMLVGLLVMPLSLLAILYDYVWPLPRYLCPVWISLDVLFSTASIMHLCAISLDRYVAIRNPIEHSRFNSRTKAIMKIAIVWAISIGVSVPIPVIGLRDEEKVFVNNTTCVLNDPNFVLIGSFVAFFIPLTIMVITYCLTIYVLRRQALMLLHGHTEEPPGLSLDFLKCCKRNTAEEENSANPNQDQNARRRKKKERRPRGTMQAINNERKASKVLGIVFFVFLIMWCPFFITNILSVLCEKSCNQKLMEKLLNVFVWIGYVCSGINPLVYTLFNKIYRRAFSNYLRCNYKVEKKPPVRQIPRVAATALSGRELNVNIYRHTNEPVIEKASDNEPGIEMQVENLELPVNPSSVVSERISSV

Test [13] concerns the target 5-hydroxytryptamine receptor 2B (Homo sapiens) (UniProt P41595).
The target of test [14] is 5-hydroxytryptamine receptor 5A (Homo sapiens) (UniProt P47898).
Test [15] addresses Histamine H1 receptor (Homo sapiens) (UniProt P35367).
The target of test [16] is 5-hydroxytryptamine receptor 2A (Homo sapiens) (UniProt P28223).

Data on 8 compounds can be found in ChEMBL document CHEMBL5442219.

Kappa-type opioid receptor (Homo sapiens), sequence (P41145 whole entry): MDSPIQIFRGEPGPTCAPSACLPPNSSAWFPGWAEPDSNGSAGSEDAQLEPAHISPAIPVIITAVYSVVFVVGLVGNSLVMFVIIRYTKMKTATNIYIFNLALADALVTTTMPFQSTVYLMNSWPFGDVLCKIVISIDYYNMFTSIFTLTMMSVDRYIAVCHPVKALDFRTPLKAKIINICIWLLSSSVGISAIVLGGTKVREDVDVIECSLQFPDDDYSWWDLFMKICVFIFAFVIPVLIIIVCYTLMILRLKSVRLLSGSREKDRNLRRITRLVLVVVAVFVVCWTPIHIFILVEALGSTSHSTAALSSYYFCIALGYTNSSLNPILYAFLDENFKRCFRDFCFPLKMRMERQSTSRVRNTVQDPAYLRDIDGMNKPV
5-hydroxytryptamine receptor 2A (Homo sapiens), sequence (P28223 whole entry): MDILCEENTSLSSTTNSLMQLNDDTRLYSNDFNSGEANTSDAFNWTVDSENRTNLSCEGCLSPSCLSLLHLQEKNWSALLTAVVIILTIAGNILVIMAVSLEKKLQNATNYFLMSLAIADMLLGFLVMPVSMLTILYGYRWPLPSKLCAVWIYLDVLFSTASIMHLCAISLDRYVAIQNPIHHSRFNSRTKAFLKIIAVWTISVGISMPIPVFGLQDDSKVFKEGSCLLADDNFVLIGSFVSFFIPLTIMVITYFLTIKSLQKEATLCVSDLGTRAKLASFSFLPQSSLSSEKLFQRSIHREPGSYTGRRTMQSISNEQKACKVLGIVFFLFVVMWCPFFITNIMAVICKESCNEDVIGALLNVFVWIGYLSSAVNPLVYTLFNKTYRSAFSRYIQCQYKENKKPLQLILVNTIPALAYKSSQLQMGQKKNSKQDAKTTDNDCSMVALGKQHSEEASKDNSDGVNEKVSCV
Histamine H1 receptor (Homo sapiens), sequence (P35367 whole entry): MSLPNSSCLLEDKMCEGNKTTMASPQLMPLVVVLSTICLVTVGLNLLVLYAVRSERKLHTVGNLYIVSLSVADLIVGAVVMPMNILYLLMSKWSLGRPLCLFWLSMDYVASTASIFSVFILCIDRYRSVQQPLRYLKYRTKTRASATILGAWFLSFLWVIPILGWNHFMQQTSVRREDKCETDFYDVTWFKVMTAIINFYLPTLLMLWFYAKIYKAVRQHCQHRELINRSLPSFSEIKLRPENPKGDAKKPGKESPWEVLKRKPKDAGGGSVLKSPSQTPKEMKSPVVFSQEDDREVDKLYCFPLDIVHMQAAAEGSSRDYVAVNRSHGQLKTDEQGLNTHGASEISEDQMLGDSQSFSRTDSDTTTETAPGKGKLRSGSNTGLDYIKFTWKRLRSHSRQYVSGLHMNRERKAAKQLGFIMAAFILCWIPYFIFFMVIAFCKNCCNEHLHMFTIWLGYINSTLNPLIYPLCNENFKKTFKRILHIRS
5-hydroxytryptamine receptor 1E (Homo sapiens), sequence (P28566 whole entry): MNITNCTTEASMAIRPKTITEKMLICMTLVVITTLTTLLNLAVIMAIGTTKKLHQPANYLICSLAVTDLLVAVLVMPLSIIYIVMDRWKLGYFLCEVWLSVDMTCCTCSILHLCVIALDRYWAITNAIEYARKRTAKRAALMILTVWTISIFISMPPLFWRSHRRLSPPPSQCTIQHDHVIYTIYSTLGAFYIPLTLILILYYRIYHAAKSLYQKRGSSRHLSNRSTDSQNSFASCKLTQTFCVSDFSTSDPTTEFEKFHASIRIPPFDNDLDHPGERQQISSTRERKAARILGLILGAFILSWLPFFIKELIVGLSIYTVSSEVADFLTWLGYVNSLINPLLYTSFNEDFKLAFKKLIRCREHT
5-hydroxytryptamine receptor 2B (Homo sapiens), sequence (P41595 whole entry): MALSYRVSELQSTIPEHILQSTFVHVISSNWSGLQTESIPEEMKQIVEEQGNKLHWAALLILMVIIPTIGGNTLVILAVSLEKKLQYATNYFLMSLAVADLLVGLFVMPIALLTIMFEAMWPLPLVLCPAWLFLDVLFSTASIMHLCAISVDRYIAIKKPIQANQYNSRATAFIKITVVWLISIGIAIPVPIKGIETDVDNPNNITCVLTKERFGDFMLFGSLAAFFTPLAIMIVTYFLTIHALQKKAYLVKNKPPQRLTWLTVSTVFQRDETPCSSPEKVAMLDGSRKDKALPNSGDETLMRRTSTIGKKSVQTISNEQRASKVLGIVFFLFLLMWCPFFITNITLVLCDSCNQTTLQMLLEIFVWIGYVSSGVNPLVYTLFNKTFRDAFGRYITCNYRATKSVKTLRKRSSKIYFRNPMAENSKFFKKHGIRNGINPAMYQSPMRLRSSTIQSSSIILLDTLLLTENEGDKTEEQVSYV
D(3) dopamine receptor (Homo sapiens), sequence (P35462 whole entry): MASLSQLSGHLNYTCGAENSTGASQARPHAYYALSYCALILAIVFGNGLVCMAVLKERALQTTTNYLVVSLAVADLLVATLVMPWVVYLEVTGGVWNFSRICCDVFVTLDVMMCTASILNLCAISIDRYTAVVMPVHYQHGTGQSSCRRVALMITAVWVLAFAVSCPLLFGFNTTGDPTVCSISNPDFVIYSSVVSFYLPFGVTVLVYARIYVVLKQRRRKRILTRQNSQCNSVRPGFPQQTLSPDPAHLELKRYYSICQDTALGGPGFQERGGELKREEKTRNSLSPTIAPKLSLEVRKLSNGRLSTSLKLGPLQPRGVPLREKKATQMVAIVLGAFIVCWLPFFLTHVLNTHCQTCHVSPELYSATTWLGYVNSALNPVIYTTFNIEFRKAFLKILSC
Sigma intracellular receptor 2 (Homo sapiens), sequence (Q5BJF2 whole entry): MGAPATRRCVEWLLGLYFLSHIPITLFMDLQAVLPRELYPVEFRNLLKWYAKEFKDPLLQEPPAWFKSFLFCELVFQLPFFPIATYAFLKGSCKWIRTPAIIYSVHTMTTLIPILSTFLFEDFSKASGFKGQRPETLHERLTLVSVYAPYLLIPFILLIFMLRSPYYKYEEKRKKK
Beta-2 adrenergic receptor (Homo sapiens), sequence (P07550 whole entry, looked up): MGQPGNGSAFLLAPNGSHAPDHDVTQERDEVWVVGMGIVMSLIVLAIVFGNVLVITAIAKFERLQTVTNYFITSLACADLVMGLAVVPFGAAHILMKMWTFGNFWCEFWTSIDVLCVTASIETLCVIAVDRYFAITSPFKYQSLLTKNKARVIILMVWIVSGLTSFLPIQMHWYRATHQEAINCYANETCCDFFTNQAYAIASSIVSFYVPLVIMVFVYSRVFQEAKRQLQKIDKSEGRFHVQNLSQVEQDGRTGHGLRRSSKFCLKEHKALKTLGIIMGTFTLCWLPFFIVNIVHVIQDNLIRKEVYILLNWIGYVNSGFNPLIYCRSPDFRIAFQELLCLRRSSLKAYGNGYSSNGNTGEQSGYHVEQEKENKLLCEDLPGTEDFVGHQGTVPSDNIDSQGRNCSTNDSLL
Translocator protein (Homo sapiens), sequence (P30536 whole entry): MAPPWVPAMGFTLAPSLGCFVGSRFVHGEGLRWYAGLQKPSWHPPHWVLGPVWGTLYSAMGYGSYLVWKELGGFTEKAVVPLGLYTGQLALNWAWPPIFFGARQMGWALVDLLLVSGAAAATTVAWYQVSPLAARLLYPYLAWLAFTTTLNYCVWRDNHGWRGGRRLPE
5-hydroxytryptamine receptor 5A (Homo sapiens), sequence (P47898 whole entry): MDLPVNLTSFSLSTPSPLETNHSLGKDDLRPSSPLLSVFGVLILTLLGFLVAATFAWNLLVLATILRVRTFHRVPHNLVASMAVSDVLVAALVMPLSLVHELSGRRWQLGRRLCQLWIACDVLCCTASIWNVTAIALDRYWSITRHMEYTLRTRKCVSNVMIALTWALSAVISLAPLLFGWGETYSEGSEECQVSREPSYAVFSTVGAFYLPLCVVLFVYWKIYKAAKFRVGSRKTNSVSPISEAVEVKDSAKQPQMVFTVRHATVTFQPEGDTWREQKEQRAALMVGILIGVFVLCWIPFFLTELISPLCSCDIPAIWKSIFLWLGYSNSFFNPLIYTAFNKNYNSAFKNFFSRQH
Histamine H4 receptor (Homo sapiens), sequence (Q9H3N8 whole entry): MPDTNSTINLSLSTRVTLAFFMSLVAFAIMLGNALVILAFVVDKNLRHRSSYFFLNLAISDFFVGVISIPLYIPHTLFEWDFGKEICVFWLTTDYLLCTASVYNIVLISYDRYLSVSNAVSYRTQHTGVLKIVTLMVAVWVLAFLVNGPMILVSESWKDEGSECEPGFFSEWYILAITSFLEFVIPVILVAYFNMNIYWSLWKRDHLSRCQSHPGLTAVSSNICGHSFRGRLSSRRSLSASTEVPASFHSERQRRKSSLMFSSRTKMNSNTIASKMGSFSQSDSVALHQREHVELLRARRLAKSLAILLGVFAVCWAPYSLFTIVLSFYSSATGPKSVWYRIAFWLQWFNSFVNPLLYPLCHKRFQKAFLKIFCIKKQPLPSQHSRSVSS

With `CC(C)NCC(O)COc1cccc2[nH]ccc12` (stereo not drawn), the inhibition in [1] was 38.5%; in test [2] it was 65.4%; in test [3], 94.1%; in test [4], 20%; in test [5] it was 46.9%; in [6] it was 100%. Also, the inhibition in [7] was -0.98%; in test [8], 69.4%; in test [9], -8.33%; in test [10], 97.5%; in [11], 1.35%; in test [12], 7.77%. The inhibition in test [13] was 39.4%; in test [14], 52.6%.
Turning to `Cc1ccc2c(c1)c1c(n2CCc2ccc(C)nc2)CCN(C)C1`, the inhibition is 11.9% in test [1]; 72.3% in [2]; 39.1% in test [3]; 56.9% in [4]; 20% in test [5]; -9.1% in [6]. Moreover, the inhibition is 21.6% in [7]; 52.7% in test [8]; 95.1% in test [15]; 84.6% in test [16]; 32.2% in test [10]; 73.6% in test [11]. Also, the inhibition was 81.4% in test [12], 76.9% in [13] and 94.8% in [14].
For `Clc1cccc(Cl)c1NC1=NCCN1`, the inhibition was 10.8% in test [1]; 19.4% in [2]; 8% in test [3]; 9.4% in test [4]; 11.2% in test [5]; -4.25% in [6]. In addition, the inhibition in [7] was 5.96%; in test [8], -2.87%; in test [9], 2.9%; in test [10] it was 66.3%; in [11] it was 84.7%; in test [12] it was 55.7%. For the same compound, the inhibition is 93.8% in test [13] and 20.1% in [14].
On to `CCC(=O)NCC[C@@H]1CCc2ccc3c(c21)CCO3`, for which the inhibition in [1] is 27.6%; in [2], 8.49%; in [3] it was -7.41%; in test [4] it was -5.33%; in test [5] it was 14.2%; in [6], 12.6%. Besides, the inhibition in test [7] is 6.73%; in test [8], -3.2%; in [15], -1.68%; in [16], 6.79%; in [10], 47.4%; in test [11] it was -9.25%. The inhibition in test [12] was -6.58%; in test [13], 72%; in test [14], 21.8%.
In the case of `CN1C[C@H](C(=O)N[C@]2(C)O[C@@]3(O)[C@@H]4CCCN4C(=O)[C@H](Cc4ccccc4)N3C2=O)C[C@@H]2c3cccc4[nH]cc(c34)C[C@H]21`, the inhibition in [1] is 19%; in [2], 97.8%; in test [3] it was 96.3%; in [4] it was 76.1%; in test [5], 15.5%; in [6] it was 18.1%. Further, the inhibition was 1.05% in [7]; 100% in test [8]; 3.01% in test [9]; 93.6% in test [10]; 115% in test [11]; 103% in test [12]. The results for the inhibition in test [13] and in test [14] were 82.8% and 97.6%, respectively.
As to `Cc1nn(C)c(C)c1-c1cccc2c1CC[C@H](N(C)C)C2`, the inhibition in test [2] is -2.85%; in [3], 51.8%; in test [4], 47.5%; in test [5], 23.1%; in [6] it was 20.2%; in [7] it was 85.9%. The inhibition in [8] was 24.5%; in [15], 9.36%; in test [10], 79.1%; in [11] it was 45.4%; in test [12] it was 13.1%; in test [13], 84.9%. For the same compound, the inhibition in test [14] was 87.1%.
Regarding `O=C(O)c1cc(-c2ccc(C3CCNCC3)cc2)c2ccc(-c3ccc(C(F)(F)F)cc3)cc2c1`, the inhibition in test [1] was 21.7%; in test [2], 28.9%; in test [3], 51.4%; in test [4], 2.57%; in test [5] it was 19.2%; in test [6] it was -2.41%. For the same compound, the inhibition in [7] is 21.6%; in test [9], -8.87%; in [15], 42.8%; in test [16], 28.4%; in test [10] it was 81.1%; in test [11], 27.2%. For the same compound, the inhibition was -3.35% in test [12], 26.6% in test [13] and 69% in [14].
As for `OC[C@H]1O[C@@H](n2cnc3c(NC4CCCC4)ncnc32)[C@H](O)[C@@H]1O`, the inhibition in test [2] was 7.26%; in [3] it was -5.74%; in test [4], -3.16%; in test [5], -5.12%; in test [6], -3.65%; in test [7], 3.29%. Besides, the inhibition was 34% in test [8]; 2.72% in test [15]; -8.74% in test [16]; 14.2% in [10]; -3.43% in test [12]; 38.5% in [13]. In addition, the inhibition in test [14] is -5.9%.

In general, inhibition refers to the relative decrease from the control value, in per cent.
